Source: publication PMC12022903, “Evaluation of drug-drug interaction between Suraxavir Marboxil (GP681) and itraconazole, and assessment of the impact of gene polymorphism” (Frontiers in Pharmacology, 2025)
Several values for one entry are separate records, joined by “and”; a condition that tells them apart may be missing. Equal entries are not always repeated.

Test: Pharmacokinetic parameters of GP1707D07 (HPLC-MS/MS, non-compartmental) in the GP681-itraconazole drug-drug interaction study
Assay type: in vivo, healthy Chinese subjects
Conditions: for Cmax / MRT0-t / MRT0-∞ / Tmax / Vz/F / t1/2 / λz / AUC0-t / AUC0-∞ / AUC_%Extrap / CL/F: Period 2, GP681 20 mg + itraconazole
Protocol: This single-center, open-label, self-controlled, fixed-sequence study, sponsored by Qingfeng Pharmaceutical Group Co., Ltd., was conducted at a single clinical research site in the China–Japan Friendship Hospital (Beijing, China). Each subject received the following treatment: Suraxavir Marboxil (GP681) 20 mg in the fasted state on day 1 and day 26. Itraconazole capsules (Sporanox®: Xi’an Yangsen Pharmaceutical Co., Ltd., China) 0.2 g twice daily (BID, bis in die) on day 22. Itraconazole 0.2 g daily from day 23 to day 36 [including day 26, when itraconazole was co-administrated with Suraxavir Marboxil (GP681)]. The washout period is 21 days (Figure 2). It should be noted that in the following sections, when discussing the PK profile, this study was divided into Period 1 (Suraxavir Marboxil (GP681) monotherapy, from day −1 to day 12), and Period 2 (Suraxavir Marboxil (GP681)-itraconazole co-administration, from day 21 to day 36). When discussion the safety profile, this study was divided into Stage 1 (Suraxavir Marboxil (GP681) monotherapy stage, from day 1 to day 21), Stage 2 (itraconazole monotherapy stage, from day 22 to day 25), and Stage 3 (Suraxavir Marboxil (GP681)-itraconazole co-administration stage, from d 26 to d 36).
Blood samples were collected at the following time points: pre–dose, 0.5, 1, 2, 3, 4, 5, 6, 8, 12, 24, 36, 48, 72, 120, 168, and 264 h post-dose on day 1 and day 26. In addition, a blood sample were collected before dosing on day 1 for genetic polymorphism assessment.
A validated high-performance liquid chromatography-tandem mass spectrometry (HPLC-MS/MS) method was used to determine plasma concentrations of Suraxavir Marboxil (GP681) and its active metabolite GP1707D07 at different times, with the quantification range of 0.3/0.3–300/300 ng/mL for Suraxavir Marboxil (GP681) and GP1707D07. The lower limit of quantification (LLOQ) for both compounds was 0.300 ng/mL. Phoenix® WinNonlin® 8.3 was used to estimate and analyze the pharmacokinetic parameters of non-compartmental model from plasma concentration data. Pharmacokinetic parameters included: maximum plasma concentration (Cmax), area under the plasma concentration-time curve extrapolated from time zero to infinity (AUC0- ∞ ), time to Cmax (Tmax), half-life (t1/2), λz, AUC_%Extrap, Vz/F, CL/F, and mean residence time (MRT).
Statistical analysis was performed using SAS (version 9.4 or above) software programming. Pharmacokinetic concentration analysis was based on Pharmacokinetic Analysis Concentration Set (PKCS). Individual and mean concentrations (mean ± SD) were plotted against planned blood sampling time points for the analyte on linear and semi-log scales. Pharmacokinetic parameter analysis was based on Pharmacokinetic Analysis Parameter Set (PKPS). Drug interaction analysis was based on Drug Interaction Set (DIS). The geometric mean ratios and their 90% confidence intervals of pharmacokinetic parameters Cmax, AUC0-t, and AUC0- ∞ under Suraxavir Marboxil (GP681) single dose and Suraxavir Marboxil (GP681)-itraconazole co-administration conditions were calculated after natural logarithm transformation, using a linear mixed effects model with subjects as random effects and treatment (combined/single) as fixed effects.
1.3 Pharmacokinetic Sample Collection and Processing: Pharmacokinetic Analysis: Approximately 4 mL of blood is collected each time into a tube containing sodium fluoride/potassium oxalate as an anticoagulant. The tube is then placed upright in an ice-water bath. The plasma samples are separated by centrifugation for the detection of GP681/GP1707D07 blood drug concentrations. Both sample collection and processing are conducted under white light conditions. […]

[1] = mean (SD), N = 4 (8 subjects with %AUCextrap >20% not included)

Q: With `O=C1c2c(O)c(=O)ccn2N([C@@H]2c3ccccc3SCc3c2ccc(F)c3F)[C@@H]2COC3(CC3)CN12` [GP1707D07] as the molecule, how does the Cmax (geometric mean, N=12) read?
A: The Cmax was 22.0 ng/mL and 22.0359 ng/mL.

Q: What about the MRT0-t (geometric mean, N=12) of the same molecule?
A: Its MRT0-t is 91.828 h.

Q: What about the “MRT0-∞” value (geometric mean, N=12) of the same molecule?
A: Its value is 170.5 h and 170.494 h.

Q: What about the Tmax (geometric mean, N=12) of the same molecule?
A: Its Tmax is 4.4 h.

Q: And the Vz/F (geometric mean, N=12)?
A: The Vz/F was 1365.672 L.

Q: And the t1/2 (geometric mean, N=12)?
A: The t1/2 was 125.561 h.

Q: And the λz (geometric mean, N=12)?
A: Its λz is 0.0055 h⁻¹.

Q: And the AUC0-t (individual subjects)?
A: Its AUC0-t is 2991.14 ng·h/mL and 2032.39 ng·h/mL and 1353.85 ng·h/mL and 2127.20 ng·h/mL and 1044.79 ng·h/mL and 2764.96 ng·h/mL and 1661.62 ng·h/mL and 2484.54 ng·h/mL and 2488.27 ng·h/mL and 2757.79 ng·h/mL and 1586.83 ng·h/mL and 2524.54 ng·h/mL and 2991.1 ng·h/mL and 2032.4 ng·h/mL and 1353.9 ng·h/mL and 1044.8 ng·h/mL and 2765.0 ng·h/mL and 1661.6 ng·h/mL and 2484.5 ng·h/mL and 2488.3 ng·h/mL and 2757.8 ng·h/mL and 1586.8 ng·h/mL and 2524.5 ng·h/mL.

Q: And the “AUC0-∞” value (individual subjects)?
A: The value was 4071.31 ng·h/mL and 2952.73 ng·h/mL and 1815.81 ng·h/mL and 2809.94 ng·h/mL and 1322.58 ng·h/mL and 3386.84 ng·h/mL and 1943.92 ng·h/mL and 3038.12 ng·h/mL and 3010.01 ng·h/mL and 3496.61 ng·h/mL and 2164.09 ng·h/mL and 3287.23 ng·h/mL.

Q: And the AUC_%Extrap (individual subjects)?
A: The AUC_%Extrap was 26.53% and 31.17% and 25.44% and 24.30% and 21.00% and 18.36% and 14.52% and 18.22% and 17.33% and 21.13% and 26.67% and 23.20%.

Q: What about the CL/F (individual subjects) of the same molecule?
A: The CL/F was 4.91 L/h and 6.77 L/h and 11.01 L/h and 7.12 L/h and 15.12 L/h and 5.91 L/h and 10.29 L/h and 6.58 L/h and 6.64 L/h and 5.72 L/h and 9.24 L/h and 6.08 L/h.

Q: And the Cmax (individual subjects)?
A: The Cmax was 30.409 ng/mL and 21.586 ng/mL and 13.021 ng/mL and 20.877 ng/mL and 9.944 ng/mL and 32.652 ng/mL and 20.426 ng/mL and 33.588 ng/mL and 31.705 ng/mL and 26.988 ng/mL and 14.549 ng/mL and 26.492 ng/mL and 30.4 ng/mL and 21.6 ng/mL and 13.0 ng/mL and 20.9 ng/mL and 9.9 ng/mL and 32.7 ng/mL and 20.4 ng/mL and 33.6 ng/mL and 31.7 ng/mL and 27.0 ng/mL and 14.5 ng/mL and 26.5 ng/mL.

Q: And the MRT0-t (individual subjects)?
A: The MRT0-t was 95.36 h and 94.95 h and 95.71 h and 95.46 h and 92.09 h and 90.98 h and 84.46 h and 87.34 h and 83.83 h and 94.91 h and 93.53 h and 94.49 h.

Q: What about the “MRT0-∞” value (individual subjects) of the same molecule?
A: The value was 196.38 h and 225.05 h and 182.53 h and 178.20 h and 165.60 h and 151.62 h and 129.66 h and 149.99 h and 143.87 h and 168.40 h and 198.32 h and 178.88 h.

Q: What about the Tmax (individual subjects) of the same molecule?
A: The Tmax was 6 h and 4 h and 5 h and 3 h.

Q: And the Vz/F (individual subjects)?
A: Its Vz/F is 1042.08 L and 1684.38 L and 1909.99 L and 1224.96 L and 2694.46 L and 929.93 L and 1355.33 L and 1100.32 L and 1104.05 L and 1021.99 L and 2056.61 L and 1181.94 L.

Q: And the t1/2 (individual subjects)?
A: Its t1/2 is 147.04 h and 172.37 h and 120.20 h and 119.29 h and 123.51 h and 109.15 h and 91.31 h and 115.86 h and 115.17 h and 123.85 h and 154.25 h and 134.65 h.

Q: And the λz (individual subjects)?
A: The λz was 0.005 h⁻¹ and 0.004 h⁻¹ and 0.006 h⁻¹ and 0.008 h⁻¹.

Q: What about the “AUC0-∞” value [1] of the same molecule?
A: Its value is 2,844.7 (624.5) (N = 4) h*ng/mL.

Q: And the CL/F [1]?
A: Its CL/F is 7.4 (2.0) (N = 4) L/h.

Q: What about the Vz/F [1] of the same molecule?
A: Its Vz/F is 1,122.4 (175.2) (N = 4) L.

Q: And the t1/2 [1]?
A: Its t1/2 is 107.9 (11.4) (N = 4) h.

Q: And the λz [1]?
A: The λz was 0.007 (0.0008) (N = 4) h-1.

Q: And the AUC_%Extrap (mean, all 12 subjects)?
A: Its AUC_%Extrap is 22.3 (4.8) % and 22.324%.

Q: And the CL/F (mean, all 12 subjects)?
A: Its CL/F is 8.0 (2.9) L/h and 7.951 L/h.

Q: And the Cmax (mean, all 12 subjects)?
A: Its Cmax is 23.5 (8.1) ng/mL and 23.5198 ng/mL.

Q: And the MRT0-t (mean, all 12 subjects)?
A: The MRT0-t was 91.9 (4.4) h and 91.926 h.

Q: What about the “MRT0-∞” value (mean, all 12 subjects) of the same molecule?
A: The value was 172.4 (26.7) h and 172.374 h.

Q: What about the Tmax (mean, all 12 subjects) of the same molecule?
A: Its Tmax is 4.5 h.

Q: What about the t1/2 (mean, all 12 subjects) of the same molecule?
A: The t1/2 was 127.2 (21.8) h and 127.221 h.

Q: What about the λz (mean, all 12 subjects) of the same molecule?
A: Its λz is 0.006 (0.0009) h-1 and 0.0056 h-1.

Q: What about the Tmax (median (range), N=12) of the same molecule?
A: The Tmax was 4.5 (3.0–6.0) h.

Q: What about the AUC0-t (median, N=12) of the same molecule?
A: Its AUC0-t is 2305.872 ng·h/mL.

Q: And the “AUC0-∞” value (median, N=12)?
A: Its value is 2981.370 ng·h/mL.

Q: And the AUC_%Extrap (median, N=12)?
A: Its AUC_%Extrap is 22.166%.

Q: What about the CL/F (median, N=12) of the same molecule?
A: Its CL/F is 6.709 L/h.

Q: What about the Cmax (median, N=12) of the same molecule?
A: Its Cmax is 24.0390 ng/mL.

Q: And the MRT0-t (median, N=12)?
A: The MRT0-t was 94.010 h.

Q: What about the “MRT0-∞” value (median, N=12) of the same molecule?
A: The value was 173.300 h.

Q: What about the Vz/F (median, N=12) of the same molecule?
A: Its Vz/F is 1203.452 L.

Q: What about the t1/2 (median, N=12) of the same molecule?
A: Its t1/2 is 121.852 h.

Q: What about the λz (median, N=12) of the same molecule?
A: Its λz is 0.0057 h⁻¹.

Q: What about the half-life (Period 2, GP681 + itraconazole, statistic not stated (discussion)) of the same molecule?
A: Its half-life is 107.4 h.

Q: And the “increase of AUC0-t in Period 2 compared to Period 1” value (arithmetic means)?
A: Its value is 107%.

Q: What about the “increase of AUC0-∞ in Period 2 compared to Period 1” value (arithmetic means) of the same molecule?
A: Its value is 153%.

Q: And the “increase of Cmax in Period 2 compared to Period 1” value (arithmetic means)?
A: Its value is 22%.

Q: What about the “AUC0-t Ratio Period 2/Period 1” value (individual subjects) of the same molecule?
A: Its value is 7.8 and 2.8 and 1.7 and 2.2 and 1.8 and 1.4 and 1.9 and 2.0 and 2.1.

Q: What about the “Cmax Ratio Period 2/Period 1” value (individual subjects) of the same molecule?
A: Its value is 8.0 and 1.7 and 0.8 and 1.8 and 1.3 and 1.6 and 1.1 and 0.6.
